Data from patent publication US20100021940A1, “Method for Determining the Activity of a Protease in a Sample” (ASTRAZENECA AB, priority 2006, published 2010).
“And” between values parts separate entries of the source, which are not always exact repeats. Equal values may be shown once.

Columns and labels:
MMP = MMP activity in synovial fluid (reporter release, HPLC); format: biochemical, human
Protocol: Synovial fluid (SF) was obtained from patients with rheumatoid arthritis (7 subjects) and systemic lupus erythematosus (SLE) (1 subject).
The amount of each sample was adjusted so that approximately 4 mg of total protein was used in the assay (Table 13).
The samples were made up to 180 μl with a buffer consisting of 50 mM Tricine pH 7.5, 200 mM NaCl, 10 mM CaCl2, 20 μM ZnCl2 and 0.05% Brij-35.
To the samples was added 20 μl of the substrate Methyl 1-acetyl-L-prolyl-L-leucylglycyl-α-R-(4-nitrophenylamino)-glycyl-L-leucylglycinate (Example 1.2) solution (10 mM in methanol). After 3 h incubation at 37° C., the reaction was stopped with 5 μl 200 mM EDTA. The samples were filtered through a precolumn (Waters OASIS HLB Icc, part no. 94225, pre-conditioned with 1 ml of ethanol followed by 1 ml water) which was eluted with 1 ml water and 1 ml of 90% ethanol. The samples were evaporated to dryness under a stream of nitrogen, redissolved in 200 μl 50% ethanol and vigorously mixed with vortex mixer and centrifuged (1000 g, 2 min). Of the supernatant, 10-160 μl aliquots were analysed for the reporter 4-nitroaniline with HPLC (detection as in example 3 or with UV at […]). A standard curve was obtained by from samples spiked with quantified amounts of the reporter (4NA) and treated in the same way as the analytical samples.

MMPs = assay: Cleavage of separated diastereomers by MMPs to liberate the reporter; format: biochemical
MMP3 = MMP3 (Homo sapiens, UniProt P08254); assay: Activity of purified MMP on substrate (reporter release); format: biochemical; conditions: Table 1b; MMP3
Sequence of MMP3 (P08254 100-477): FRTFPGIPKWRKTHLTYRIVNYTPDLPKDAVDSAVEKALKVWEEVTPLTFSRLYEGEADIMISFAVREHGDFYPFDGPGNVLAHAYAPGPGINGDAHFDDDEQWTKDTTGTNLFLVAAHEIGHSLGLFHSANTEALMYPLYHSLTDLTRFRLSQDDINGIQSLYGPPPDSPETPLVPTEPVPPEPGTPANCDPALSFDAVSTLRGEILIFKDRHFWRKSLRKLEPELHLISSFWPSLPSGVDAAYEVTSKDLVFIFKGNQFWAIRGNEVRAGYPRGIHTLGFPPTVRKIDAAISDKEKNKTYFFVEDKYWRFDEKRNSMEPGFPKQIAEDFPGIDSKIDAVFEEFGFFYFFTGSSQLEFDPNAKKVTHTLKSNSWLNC
Description: (§1) In order to confirm the specificity of the substrates for various MMPs, standard enzymatic assays were adapted to monitor the release of reporter. The reporter was either analysed by a LC-MS method as described in Example 3a, or by a LC-UV method as described in Example 4. A protocol for testing against other matrix metalloproteinases, including MMP9, using expressed and purified pro MMP is described, for instance, by C.

MMP1 = target: T1, MMP1 (Homo sapiens, UniProt P03956); assay: as above; format: biochemical; conditions: Table 1b; MMP1
T1 sequence (P03956 100-469): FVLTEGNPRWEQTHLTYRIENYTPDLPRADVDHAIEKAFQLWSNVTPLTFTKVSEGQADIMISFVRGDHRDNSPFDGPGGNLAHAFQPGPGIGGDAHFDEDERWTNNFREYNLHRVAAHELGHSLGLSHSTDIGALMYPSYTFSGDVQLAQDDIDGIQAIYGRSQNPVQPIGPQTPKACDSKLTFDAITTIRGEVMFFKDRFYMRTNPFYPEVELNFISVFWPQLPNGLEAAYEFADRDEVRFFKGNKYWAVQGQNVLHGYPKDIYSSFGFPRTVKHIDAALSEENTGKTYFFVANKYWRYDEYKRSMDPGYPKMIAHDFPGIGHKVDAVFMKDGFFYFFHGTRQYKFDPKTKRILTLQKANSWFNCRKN
Description: as §1

MMP8 = target: T2, MMP8 (Homo sapiens, UniProt P22894); assay: as above; format: biochemical; conditions: Table 1b; MMP8
T2 construct: purchased Calbiochem
T2 sequence (P22894 101-467): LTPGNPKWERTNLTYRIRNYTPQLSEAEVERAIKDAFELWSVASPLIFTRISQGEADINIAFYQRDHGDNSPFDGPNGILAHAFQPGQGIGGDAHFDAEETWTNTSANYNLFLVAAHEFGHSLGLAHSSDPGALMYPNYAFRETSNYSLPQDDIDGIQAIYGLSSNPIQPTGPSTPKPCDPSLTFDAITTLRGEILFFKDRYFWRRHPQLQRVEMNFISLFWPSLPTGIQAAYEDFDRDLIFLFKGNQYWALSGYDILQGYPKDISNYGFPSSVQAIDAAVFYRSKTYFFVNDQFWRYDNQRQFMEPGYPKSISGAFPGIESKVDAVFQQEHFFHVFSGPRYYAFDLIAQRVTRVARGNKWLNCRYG
Protocol: In order to confirm the specificity of the substrates for various MMPs, standard enzymatic assays were adapted to monitor the release of reporter. The reporter was either analysed by a LC-MS method as described in Example 3a, or by a LC-UV method as described in Example 4. Purified pro-MMP8 is purchased from Calbiochem. The enzyme (at 10 μg/ml) is activated by p-amino-phenyl-mercuric acetate (APMA) at 1 mM for 2.5 h, 35° C. The activated enzyme can be used to monitor activity of substrates as follows: MMP8 (200 ng/ml final concentration) is incubated for 90 minutes at 35° C.

MMP9 = assay: as above; format: biochemical, human; conditions: Table 1b; MMP9
Description: In order to confirm the specificity of the substrates for various MMPs, standard enzymatic assays were adapted to monitor the release of reporter. The reporter was either analysed by a LC-MS method as described in Example 3a, or by a LC-UV method as described in Example 4. […] The enzyme can be used to monitor activity of substrates as follows: […]

Row | SMILES | 4NA released (MMP activity in synovial fluid) (MMP; synovial fluid of individual subjects (rheumatoid arthritis, SLE), approx. 4 mg total protein, 3 h at 37° C.) | Cleavage by MMPs to liberate the reporter (MMPs) | Activity of selected substrates with MMPs (MMP3) | Activity of selected substrates with MMPs (MMP1) | Activity of selected substrates with MMPs (MMP8) | release of reporter 4-biphenylmethanol (MMP; pooled sample of synovial fluid from all subjects in Table 13, same procedure) | Activity of selected substrates with MMPs (MMP9)
1 | COC(=O)CNC(=O)[C@H](CC(C)C)NC(=O)[C@@H](NC(=O)CNC(=O)[C@H](CC(C)C)NC(=O)[C@@H]1CCCN1C(C)=O)Nc1ccc([N+](=O)[O-])cc1 [Example 1.2, Methyl 1-acetyl-L-prolyl-L-leucylglycyl-α-R-(4-nitrophenylamino)-glycyl-L-leucylglycinate] | 94.4 nmol/ml SF and 17.4 nmol/ml SF and 15.9 nmol/ml SF and 23.9 nmol/ml SF and 26.4 nmol/ml SF and 16.5 nmol/ml SF and 20.6 nmol/ml SF and 12.0 nmol/ml SF | rapidly cleaved by MMPs | – | – | – | – | –
2 | COC(=O)CNC(=O)[C@H](CC(C)C)NC(=O)[C@@H](NC(=O)CNC(=O)[C@H](CC(C)C)NC(=O)[C@@H]1CCCN1C(C)=O)OCc1ccc(-c2ccccc2)cc1 (single isomer, unassigned) [Example 1.3, Methyl 1-acetyl-L-prolyl-L-leucylglycyl-α-S-(biphenyl-4-ylmethoxy)-glycyl-L-leucylglycinate] | – | rapidly cleaved by MMPs | 5.5 units/s (molRXH/molEnz * s) | 35.4 units/s (molRXH/molEnz * s) | 26.9 units/s (molRXH/molEnz * s) | 33.2 nmol/ml SF | 63.6 units/s (molRXH/molEnz * s)
3 | COC(=O)CNC(=O)[C@H](CC(C)C)NC(=O)[C@@H](NC(=O)CNC(=O)[C@H](CC(C)C)NC(=O)[C@@H]1CCCN1C(C)=O)Nc1ccc(-c2nnc(-c3ccc(C)cc3)o2)cc1 [Example 1.4, Methyl 1-acetyl-L-prolyl-L-leucylglycyl-α-R-[4-(5-p-tolyl-[1,3,4]oxadiazol-2-yl)-phenylamino]-glycyl-L-leucylglycinate] | – | rapidly cleaved by MMPs | 0.00 units/s (molRXH/molEnz * s) | 0.00 units/s (molRXH/molEnz * s) | 0.05 units/s (molRXH/molEnz * s) | – | 0.58 units/s (molRXH/molEnz * s)
4 | CC(=O)N1CCC[C@H]1C(=O)N[C@@H](CC(C)C)C(=O)NCC(=O)N[C@@H](Nc1ccc([N+](=O)[O-])cc1)C(=O)N[C@@H](Cc1ccccc1)C(=O)Nc1ccccc1 [Example 1.5, 1-acetyl-L-prolyl-L-leucylglycyl-α-R-(4-nitrophenylamino)-glycyl-N-phenyl-L-phenylalaninamide] | – | rapidly cleaved by MMPs | 0.18 units/s (molRXH/molEnz * s) | 2.48 units/s (molRXH/molEnz * s) | 11.4 units/s (molRXH/molEnz * s) | – | 11.5 units/s (molRXH/molEnz * s)
